Entries after “also recorded” stand apart in the source; their conditions may differ.
How the values were obtained:
Format in all cases: cell-based
A. baumannii 5075 [1] = test: Siderophores secreted by A. baumannii (CAS assay); details: 5075, 20 h, M63 without citrate; compounds 40 μM, SB-17–140 80 μM
Description: Unlike pyoverdine, the siderophores secreted by are not fluorescent. Consequently, to measure siderophore secretion from planktonic cultures of , we decided to utilize the Chrome azurol S (CAS) assay, a well-known universal colorimetric method used to detect siderophores. , To this end, planktonic cells of 5075 were cultured for 20 h in the presence of sub-MICs of a representative number of inhibitors in M63 media not containing citrate, followed by analysis of the cell-free spent media by the CAS assay. […] These observations support the hypothesis that active compounds engage their target (Ab Bfr) and block the Ab Bfr–Bfd complex in , trapping iron in Ab Bfr and causing intracellular iron limitation, which in turn elicits a siderophore overproduction phenotype. […]
reported13 with some modifications. Cells were cultured in modified M63 media (2 g / L ( N H 4)2SO4, 13.6 g/L KH2PO4 (Sigma Aldrich), 2 g/L glucose, 4 g/L cit ric acid, 5 g/ L technical grade casamino acids (B D scientific), 0.24 g/L MgSO4 (Alfa A esar), and 0.025% (w/v) HPMC, pH 7.0 adjusted with KOH) . […]
Determination of Siderophores Secreted by A. baumannii . The chromo azurol S (CAS) solution was prepared as previously reported18 with some modifications. The blue dye solution (0.6 g/L CAS ( ACROS Organics), 100 μM FeCl3·6H2O, and 0.73 g/L hexadecyltrimethylammonium bromide (HDTMA, ACROS Organics) was autoclaved and stored in the dark. The MM9-PIPES buffer solution (3 g/L KH2PO4, 5 g/L NaCl, 10 g/L NH4C l, 32.24 g/L piperazine -1,4-bis-2- ethanesulfonic acid (PIPES , Sigma Aldrich), pH 6.75) was sterilized using a 0.22 µm syringe filter (VWR). Prior to every experimen t, blue dye solution (0.5 mL) was mixed with 4.5 mL of MM9-PIPES solution. An overnight culture of A. baumannii 5075 was diluted to OD600 = 0.0001 with modified M63 media (no citric acid) supplemented with 4 μ M Fe and transferred to a 96-well plate, wh ere it was cul tured for 20 […]
h at 35 °C and 205 cpm i n a plate reader (Synergy H1, BioTek). The treated cell cultures contained compound at the concentrations indicat ed in the caption of Figure 8B and […], whereas the untreated control contained 0.1% DMSO. 700 μ L was centrifuged at 16,200 x g for 10 min. 200 μ L of the clarified supern atant was mixed with the 200 μL of CAS solution and allowed to incubate at room temperatu re in the dark for 2 h prior to recording a UV-Vis spectrum (200 nm to 800 nm) in a 1.0 cm quartz cuvette with the aid of a Cary 60 UV-Vi s spectrophotometer (Agilent Technologies). The fold- change in siderophore secreted by the treated vs. untreated cells was calculated using equation S3, where Tr indicates treated cells, Un indicates DMSO control cells, […]
solution of fresh modified M63 media. The experiment was carried out in at least five biological replicates for […]
FFggFFFF cch aammggaa =(ΔΔAA 630 )UUii (S3)
Measurement of Dissociation Constant (Kd) R ecombinant Pa BfrB was expressed in E. coli and purified as previously reported.19 Apo-BfrB (devoid of heme) was utilized for the measurements to prevent heme-driven fluorescence quenching. A 0.5 mL solution contai ning 0.01 µM apo Pa-BfrB in PBS (pH = 7.4) containing0.5% DMSO was plac ed into a 1 cm quartz cuvette wh ere it was titrated with aliq uots of compound dissolved in a 50% (v/v) PBS/DMSO solution. The fluorescence quenching brought by the addition of each aliquot was monitored with the aid of an Agilent Cary Fluorometer , with excitation at 280 nm, emission at 320- 470 nm, 10 x10 nm slit width, and an average of 5 scans per spectrum. Th e binding assay included at least 8 aliquots spanning from ~ 0.1 […]
A control titration was carried out by titrati ng compound into PBS buffer. The Kd was cal culated by fitting the data to equation S4, w here Fb is the fraction bound and Fmax is the fraction bound at saturating compound concentration.
FFbb = FFmmmmmm ? [ccccmmccccccmmcc ]? (S4) […]

P. aeruginosa PAO1 = test: Pyoverdin secreted by P. aeruginosa PAO1 (fluorescence); details: planktonic cells, 24 h; KM-5–25 80 μM, KM-5–35 60 μM, EB-5–73 40 μM, SB-17–140 80 μM
Description: Dete rmination of pyoverdin secreted by P. aeruginosa PA O 1 . These experiments were conducted as previously reported13 with some modifications. Cells were cultured in modified M63 media (2 g / L ( N H 4)2SO4, 13.6 g/L KH2PO4 (Sigma Aldrich), 2 g/L glucose, 4 g/L cit ric acid, 5 g/ L technical grade casamino acids (B D scientific), 0.24 g/L MgSO4 (Alfa A esar), and 0.025% (w/v) HPMC, pH 7.0 adjusted with KOH) . Starter cultures in LB were diluted to OD600 = 0.0001 and cultured in a sh aker i ncubator (35 °C and 205 rpm) for 24 h, in the absen ce ( control) and in the presence of KM -5- 25 (80 μM), KM-5- 35 (60 μM), EB- 5- 73 (40 μM), and SB-17- 140 (80 μM); al l cell suspensions have 1.5% DMSO. 700 μ L of the culture wer e clarified by centrifugation (16,200 x g, 10 min, 4 °C), diluted 10-fold in PBS and then analyzed by acquiring fluorescence emission spectra (410- 600 nm) with excitation at 400 nm (10 nm slit width) and emission at λ max= 430 nm (10 nm slit width) using an Ag ilent (Cary Eclipse) fluorescen ce sp ectrophotometer. The flu orescen ce intensity of th e treated sample (FI)Tr and that of the untreated control (FI)Un was normalized to the corresponding OD600 and the ratio (FI/OD600)Tr / (F I/ OD600)Un is […]
The determination for each of the compounds was carri ed out in 5 biological replicates. […]

A. baumannii 5075 [2] = test: Compound intracellular accumulation in A. baumannii 5075; details: ‡ treatment with 15 µM compound

| Compound | siderophore secretion, ΔA 630 nm normalized to OD600 (A. baumannii 5075 [1]) | pyoverdine secretion, (FI/OD600)Tr/(FI/OD600)Un (P. aeruginosa PAO1) | Intracell. Accum, A. baumannii 5075 (A. baumannii 5075 [2]) [nmol/1012 CFU] |
| --- | --- | --- | --- |
| O=C1NC(=O)c2c(NCc3cccc(Br)c3O)cccc21 [EB-5-73] | do not elicit a siderophore overproduction phenotype | did not secrete more pyoverdine than the untreated control cultures; also recorded: secrete the same amount of pyoverdine as the untreated control | – |
| O=C1NC(=O)c2c(NCc3ccc(Br)cc3O)cccc21 [EB-5-61] | secrete significantly higher levels of siderophore | – | – |
| O=C1NC(=O)c2c(NCc3c(O)cccc3Cl)cccc21 [KM-5-29] | secrete significantly higher levels of siderophore | – | – |
| O=C1NC(=O)c2c(NCc3cccc4c3CCN4)cccc21 [SB-17-140] | do not elicit a siderophore overproduction phenotype | did not secrete more pyoverdine than the untreated control cultures; also recorded: secrete the same amount of pyoverdine as the untreated control | – |
| O=C1NC(=O)c2c(NCc3cc(Cl)ccc3O)cccc21 [KM-5-25, 4-((5-Chloro-2-hydroxybenzyl)amino)isoindoline-1,3-dione] | secrete significantly higher levels of siderophore | overproduction of pyoverdine; also recorded: pyoverdine overproduction phenotype | – |
| O=C1NC(=O)c2c(NCc3cc(Br)ccc3O)cccc21 [KM-5-35, 4-((5-Bromo-2-hydroxybenzyl)amino)isoindoline-1,3-dione] | secrete significantly higher levels of siderophore | overproduction of pyoverdine; also recorded: pyoverdine overproduction phenotype | – |
| Cc1cc(Br)cc(CNc2cccc3c2C(=O)NC3=O)c1O [SB-16-106] | – | – | 782 ± 11 |
| CC(C)(C)c1ccc(O)c(CNc2cccc3c2C(=O)NC3=O)c1 [SB-16-53] | – | – | 327 ± 17 |
| O=C1NC(=O)c2c(NCc3cc(Cl)ccc3O)ccc(Br)c21 [SB-16-51] | – | – | 2137 ± 311 |
| O=C1NC(=O)c2c(NCc3cc(Br)ccc3O)ccc(Cl)c21 [SB-16-124] | – | – | 2626 ± 389 |
| Cc1cc(Cl)cc(CNc2cccc3c2C(=O)NC3=O)c1O [SB-16-156] | – | – | 671 ± 89 |

From paper PMC12261321, “Inhibitors of the Bacterioferritin Ferredoxin Complex Dysregulate Iron Homeostasis and Kill and Biofilm-Embedded Cells” (ACS Infectious Diseases, 2025)
